The target in assay [1] is T1, Lysophosphatidic acid receptor 3 (Homo sapiens, UniProt Q9UBY5).
T1 sequence (Q9UBY5 whole entry): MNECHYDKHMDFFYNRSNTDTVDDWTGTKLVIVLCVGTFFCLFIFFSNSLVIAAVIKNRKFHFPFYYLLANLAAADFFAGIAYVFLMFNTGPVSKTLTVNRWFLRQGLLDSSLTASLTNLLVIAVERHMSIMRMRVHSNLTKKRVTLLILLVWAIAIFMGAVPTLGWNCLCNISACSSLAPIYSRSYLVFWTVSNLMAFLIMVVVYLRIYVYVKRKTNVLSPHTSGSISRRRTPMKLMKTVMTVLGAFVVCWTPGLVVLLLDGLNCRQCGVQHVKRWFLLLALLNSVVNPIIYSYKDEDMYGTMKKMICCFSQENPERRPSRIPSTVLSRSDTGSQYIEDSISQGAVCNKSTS
Put plainly: Antagonist activity at Lysophosphatidic acid 3 (LPA3) receptor.

The target in assay [2] is T2, Lysophosphatidic acid receptor 1 (Homo sapiens, UniProt Q92633). The assay can be described thus: Inhibitory concentration against Lysophosphatidic acid 1 (LPA1) receptor.
T2 sequence (Q92633 whole entry): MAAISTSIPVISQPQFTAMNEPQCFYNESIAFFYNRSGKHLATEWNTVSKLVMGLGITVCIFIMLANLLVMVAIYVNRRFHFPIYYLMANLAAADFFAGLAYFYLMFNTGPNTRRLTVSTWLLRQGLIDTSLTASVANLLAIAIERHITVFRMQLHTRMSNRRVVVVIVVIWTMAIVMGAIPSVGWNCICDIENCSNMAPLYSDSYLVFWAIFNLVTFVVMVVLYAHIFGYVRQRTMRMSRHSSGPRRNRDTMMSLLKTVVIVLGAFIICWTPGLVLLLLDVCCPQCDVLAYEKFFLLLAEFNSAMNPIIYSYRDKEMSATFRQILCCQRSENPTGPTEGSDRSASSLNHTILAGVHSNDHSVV
Assay [3] has as its target T2, Lysophosphatidic acid receptor 1. The assay can be described thus: Binding affinity towards Lysophosphatidic acid 1 (LPA1) receptor.

Structures are written as SMILES. Where only a bound is given, the exact number is not on record here.

This note sets out measurements from ChEMBL document CHEMBL1137137, “A novel series of 2-pyridyl-containing compounds as lysophosphatidic acid receptor antagonists: development of a nonhydrolyzable LPA3 receptor-selective antagonist” (Bioorg Med Chem Lett, 2004).

With `CCCCCCCC/C=C\CCCCCCCC(=O)N[C@@H](Cc1ccc(OCc2ccccc2)cc1)CC(O)P(=O)(O)O` (stereo partly specified), the IC50 (commonly the concentration needed to halve the response being measured) in assay [1] was determined as 232 nM; in assay [2], 4230 nM.
Taken in the same sequence, the figures for `CCCCCCCC/C=C\CCCCCCCC(=O)N[C@H](CCP(=O)(O)O)Cc1ccc(OCc2ccccn2)cc1` were above 10000 nM and above 10000 nM.
The matching figures for `CCCCCCCC/C=C\CCCCCCCC(=O)N[C@H](COP(=O)(O)O)Cc1ccc(OCc2ncc(C)c(OC)c2C)cc1`: 561 nM and 3690 nM.
The matching figures for `CCCCCCCC/C=C\CCCCCCCC(=O)N[C@@H](CCP(=O)(O)O)Cc1ccc(OCc2ccccn2)cc1`: above 10000 nM and above 10000 nM.
For `CCCCCCCC/C=C\CCCCCCCC(=O)N[C@H](COP(=O)(O)O)Cc1ccc(OCc2cc(OC)c3ccccc3n2)cc1`, the IC50 in assay [1] is 2600 nM; in assay [2], above 10000 nM.
In the case of `CCCCCCCC/C=C\CCCCCCCC(=O)N[C@@H](COP(=O)(O)O)Cc1ccc(OCc2cc(OCCOC)ccn2)cc1`, the results for the half-inhibitory concentration (IC50) in assay [1] and in assay [2] were 423 nM and 114 nM, respectively. Further, the affinity in assay [3] corresponds to a Ki of 35 nM.
Turning to `CCCCCCCC/C=C\CCCCCCCC(=O)N[C@@H](CCP(=O)(O)O)Cc1ccc(OCc2ncc(C)c(OC)c2C)cc1`, the IC50 in assay [1] was 150 nM; in assay [2] it was above 10000 nM.
On to `CCCCCCCC/C=C\CCCCCCCC(=O)N[C@@H](COP(=O)(O)O)Cc1ccc(OCc2cc(OCC)ccn2)cc1`, for which the IC50 came out at 39 nM in assay [1] and 143 nM in assay [2]. Moreover, the Ki (as a rule, the equilibrium dissociation constant of an inhibitor or competing ligand from its target) in assay [3] is 26 nM.
On to `CCCCCCCC/C=C\CCCCCCCC(=O)N[C@@H](COP(=O)(O)O)Cc1ccc(OCc2cc(OCC(F)(F)F)ccn2)cc1`, for which the IC50 in assay [1] was 48 nM; in assay [2] it was 84 nM. In addition, the Ki in assay [3] was determined as 19 nM.
`CCCCCCCC/C=C\CCCCCCCC(=O)N[C@@H](COP(=O)(O)O)Cc1ccc(OCc2cccnc2)cc1`: the IC50 in assay [1] was determined as 1690 nM; in assay [2], 992 nM.
Taken in the same sequence, the figures for `CCCCCCCC/C=C\CCCCCCCC(=O)N[C@@H](COP(=O)(O)O)Cc1ccc(OCc2cccc(OC)n2)cc1` were 455 nM and 2840 nM.
The matching figures for `CCCCCCCC/C=C\CCCCCCCC(=O)N[C@@H](COP(=O)(O)O)Cc1ccc(OCc2cc(OC)ccn2)cc1`: 102 nM and 6250 nM.
For `CCCCCCCC/C=C\CCCCCCCC(=O)N[C@@H](COP(=O)(O)O)Cc1ccc(OCc2cc(OCCC)ccn2)cc1`, the IC50 was found to be 1660 nM in assay [1] and 141 nM in assay [2]. In addition, the Ki in assay [3] is 64 nM.
In assay [1], `CCCCCCCC/C=C\CCCCCCCC(=O)N[C@H](COP(=O)(O)O)Cc1ccc(OCc2ccccn2)cc1` gave an IC50 of 940 nM.
With `CCCCCCCCCCCCCCCC(=O)N[C@H](CCP(=O)(O)O)Cc1ccc(OCc2ccccn2)cc1`, the IC50 in assay [1] was 1050 nM; in assay [2] it was above 10000 nM.
Taken in the same sequence, the figures for `CCCCCCCC/C=C\CCCCCCCC(=O)N[C@@H](COP(=O)(O)O)Cc1ccc(OCc2ccc3ccccc3n2)cc1` were 533 nM and 1430 nM.
Consider `CCCCCCCC/C=C\CCCCCCCC(=O)N[C@H](COP(=O)(O)O)Cc1ccc(OCc2ccncc2)cc1`, for which the concentration for half-maximal inhibition (IC50) is 6960 nM in assay [1] and above 10000 nM in assay [2].
Taken in the same sequence, the figures for `CCCCCCCC/C=C\CCCCCCCC(=O)N[C@@H](COP(=O)(O)O)Cc1ccc(OCc2ccncc2)cc1` were 2080 nM and 735 nM.
Taken in the same sequence, the figures for `CCCCCCCC/C=C\CCCCCCCC(=O)N[C@H](COP(=O)(O)O)Cc1ccc(OCc2cccnc2)cc1` were 6240 nM and 4500 nM.
On to `CCCCCCCC/C=C\CCCCCCCC(=O)N[C@@H](COP(=O)(O)O)Cc1ccc(OCc2cc(OC)c3ccccc3n2)cc1`, for which the figures for the IC50 in assay [1] and in assay [2] were 1160 nM and 962 nM, respectively.
With `CCCCCCCC/C=C\CCCCCCCC(=O)N[C@@H](COP(=O)(O)O)Cc1ccc(OCc2ncc(C)c(OC)c2C)cc1`, the IC50 in assay [1] was 39 nM; in assay [2], 62 nM. This compound gave a Ki in assay [3] of 28 nM.
On to `CCCCCCCC/C=C\CCCCCCCC(=O)N[C@H](CCP(=O)(O)O)Cc1ccc(OCc2ncc(C)c(OC)c2C)cc1`, for which the IC50 in assay [1] is 4000 nM; in assay [2] it was above 10000 nM.
`CCCCCCCC/C=C\CCCCCCCC(=O)N[C@@H](COP(=O)(O)O)Cc1ccc(OCc2ccccn2)cc1` showed an IC50 in assay [1] of 175 nM.
Turning to `CCCCCCCC/C=C\CCCCCCCC(=O)N[C@H](COP(=O)(O)O)Cc1ccc(OCc2cccc(OC)n2)cc1`, the IC50 in assay [1] is 1090 nM; in assay [2], above 10000 nM.
